# Experimental data published in patent US20260176262A1, “KRAS INHIBITORS, PREPARATION METHOD THEREFOR, AND PHARMACEUTICAL USE THEREOF” (ABBISKO THERAPEUTICS CO., LTD., priority 2021, published 2026).
# Read-outs that look alike come from different tables or passages of the source.
# Experiments:
# AGS cell = assay: Anti-proliferative 2D CTG assay, AGS cells; format: cell-based; conditions: Homo sapiens, 72 h, AGS cells, incubated 3 days, CTG, read-out: AGS cell IC50
# Method in brief: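 Cells seeded at 1000/well overnight, then treated with 10-point 1:5 dilutions ([…], 0.1% DMSO) for 3 days at 37° C. Viability read by CellTiter-Glo luminescence; % inhibition versus HPE/ZPE controls, IC50 from four-parameter fit.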
# in vivo = conditions: male, ICR, mouse, po, 10 mg/kg
# Protocol: (§1) ICR mice male N=3 original source: Shanghai Sippr-Bk Lab Animal Co., Ltd.
# (§2) Single oral (PO) administration in ICR mice: The compounds were weighed and added to the solvent of 0.5% CMC+1% Tween 80 respectively, well shaken, and ultrasonicated to get a light yellow suspension. 3 mice were administered orally after fasting overnight. The dose was 10 mg/kg.
# (§3) About 90 μL/timepoint blood was collected through the orbital cavity, anticoagulated with sodium heparin, placed on ice after collection, and centrifuged to separate the plasma within 1 hour (centrifugation conditions: 8000 rpm, 6 m 2-8C). The blood collection timepoints were 0, 0.25, 0.5, 1, 2, 4, 6, 8 and 24 h. The samples were stored in a −20° C. refrigerator.
# (§4) The plasma sample was 40 μL, 160 μL of ice-cold acetonitrile containing internal standard was added, vortexed for 1 minute, and centrifuged at 18,000 rpm for 10 minutes. The supernatant was transferred to a 96-well plate, and 5 μL was injected into LC-MS/MS for analysis.
# [1] = Pharmacokinetic experiment in mice; conditions: male, ICR, mouse, plasma
# Protocol: as §1, §2, §3, §4
# KRAS^G12D/cRAF = KRAS^G12D/cRAF (Homo sapiens, UniProt P01116, G12D); assay: KRAS G12D/cRAF binding test (Alphalisa); conditions: His-tagged KRAS G12D + GMPPNP, GST-tagged cRAF
# Method in brief: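 His-tagged KRAS G12D loaded with GMPPNP was incubated with compound (8-point 3-fold series from 5 mM DMSO stock) and then GST-cRAF for 15 min at room temperature. AlphaLISA detection followed after 60 min. IC50 came from a four-parameter fit of signal ratios against the DMSO control.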
# KRAS^G12D/cRAF, sequence (P01116 1-188 isoform P01116-2 G12D): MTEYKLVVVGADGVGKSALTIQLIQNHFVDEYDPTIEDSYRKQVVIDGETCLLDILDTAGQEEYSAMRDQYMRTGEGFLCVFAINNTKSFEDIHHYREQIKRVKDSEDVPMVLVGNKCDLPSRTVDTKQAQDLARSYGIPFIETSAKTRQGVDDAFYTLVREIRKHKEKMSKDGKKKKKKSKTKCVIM
Compound,IC50 (AGS cell; class symbols) [µM],AUC(0-t) (in vivo) [ng·h/mL],half-life (in vivo) [h],IC50 (AGS cell; numeric values) [µM],"AUC(0-t) ([1]; iv, 2 mg/kg) [ng·h/mL]","half-life ([1]; iv, 2 mg/kg) [h]","AUC(0-t) ([1]; po, 10 mg/kg) [ng·h/mL]","bioavailability ([1]; po, 10 mg/kg) [%]","half-life ([1]; po, 10 mg/kg) [h]",IC50 (KRAS^G12D/cRAF; numeric values) [µM],IC50 (KRAS^G12D/cRAF; class symbols) [µM]
"[2H]C([2H])([2H])OCC12CCC(CN(c3nc(OC[C@@]45CCCN4C[C@H](F)C5)nc4c(F)c(-c5cc(O)c(F)c6ccc(F)c(C#C)c56)ncc34)C1)N2 (stereo partly drawn) [Example 14, 5-ethynyl-1,6-difluoro-4-(8-fluoro-2-(((2R,7aS)-2-fluorotetrahydro-1H-pyrrolizin-7a(5H)-yl)methoxy)-4-(1-((methoxy-d3)methyl)-3,8-diazabicyclo[3.2.1]octan-3-yl)pyrido[4,3-d]pyrimidin-7-yl)naphthalen-2-ol]",> 0.5,607,5.8,,,,,,,,
"C#Cc1c(F)ccc2cc(O)cc(-c3ncc4c(N5C[C@H]6CC[C@@](C=C)(C5)N6)nc(OC[C@@]56CCCN5C[C@H](F)C6)nc4c3F)c12 [Example 57, 5-ethynyl-6-fluoro-4-(8-fluoro-2-(((2R,7aS)-2-fluorotetrahydro-1H-pyrrolizin-7a(5 H)-yl)methoxy)-4-((1R,5R)-1-vinyl-3,8-diazabicyclo[3.2.1]octan-3-yl)pyrido[4,3-d]pyrimidin-7-yl)naphthalen-2-ol]",,,,0.0081,375,5.1,1790,95,4.5,0.015,
"[2H]C([2H])([2H])[C@@]12CC[C@@H](CN(c3nc(OC[C@@]45CCCN4C[C@H](F)C5)nc4c(F)c(-c5cc(O)cc6ccc(F)c(C#C)c56)ncc34)C1)N2 [Example 43, 5-ethynyl-6-fluoro-4-(8-fluoro-2-(((2R,7aS)-2-fluorotetrahydro-1H-pyrrolizin-7a(5 H)-yl)methoxy)-4-((1R,5S)-1-(methyl-d3)-3,8-diazabicyclo[3.2.1]octan-3-yl)pyrido[4,3-d]pyrimidin-7-yl)naphthalen-2-ol]",,,,0.0015,214,5.4,733,5.8,15.7,0.0046,
"C#Cc1c(F)ccc2cc(O)cc(-c3ncc4c(N5CC6CCC(C(C)OC)(C5)N6)nc(OC[C@@]56CCCN5C[C@H](F)C6)nc4c3F)c12 (stereo partly drawn) [Example 12, 5-ethynyl-6-fluoro-4-(8-fluoro-2-(((2R,7aS)-2-fluorotetrahydro-1H-pyrrolizin-7a(5H)-yl)methoxy)-4-(1-(1-methoxyethyl)-3,8-diazabicyclo[3.2.1]octan-3-yl)pyrido[4,3-d]pyrimidin-7-yl) naphthalen-2-ol]",< 0.05,,,,,,1740,,7.2,,0.05 to 0.5
